According to paper PMC9883826 (Scientific Reports, 2023):
Converted amounts (≈) assume the structure as drawn. “Also recorded” adds a separate entry of the source. Counter-ions that a name gives are not always drawn. Like-named read-outs stand apart in the source and are kept apart here.

Tests used:
[1] = test system: DENV-2 (dengue virus-2); settings: cited from earlier work
[2] = test system: influenza A/chicken/Egypt/N12640A/2016(H5N1); test: microbe, parasite or virus in culture; assay type: cell-based, influenza A virus
[3] = in vitro; settings: dog
[4] = test system: MDCK cells; settings: dog
[5] = test system: influenza A/Egypt/NRC098/2019(H1N1); test: microbe, parasite or virus in culture; assay type: cell-based, influenza A virus; settings: for IC50: Influenza A virus, H1N1, MDCK
[6] = test system: influenza A/H5N1 virus; test: microbe, parasite or virus in culture; assay type: cell-based
[7] = test system: influenza A/H5N1 virus; test: microbe, parasite or virus in culture; assay type: cell-based; remark: listed apart in the source
[8] = test system: influenza A/H1N1 virus; test: microbe, parasite or virus in culture; assay type: cell-based; settings: H1N1, read-out: Viral inhibition (%) Mean
[9] = test system: influenza A/H5N1 virus; test: microbe, parasite or virus in culture; assay type: cell-based; remark: listed apart in the source
[10] = test system: influenza A/H5N1 virus; test: microbe, parasite or virus in culture; assay type: cell-based; settings: H5N1, read-out: Viral inhibition (%) Mean
[11] = test system: HSV-1; settings: cited from earlier work
[12] = test system: HSV-2; settings: cited from earlier work
[13] = test system: HSV-2; settings: cited from earlier work; remark: listed apart in the source
[14] = test system: severe acute respiratory syndrome coronavirus (SARS-CoV); settings: cited from earlier work
[15] = in vivo; cited from earlier work
[16] = Influenza A virus, H5N1, MDCK, 72 h
[17] = Influenza A virus, H5N1, MDCK, read-out: PIC50 H5N1
[18] = Influenza A virus, H5N1, read-out: Viral adsorption (%) viral inhibition
[19] = Influenza A virus, H5N1, read-out: Viricidal (%) viral inhibition
[20] = Influenza A virus, H5N1, read-out: Viral replication (%) viral inhibition

For `COc1ccc2c3ccnc(C)c3n(C)c2c1` [9 N methylharmine], the EC50 [1] is listed as 3200 ± 600 nM.

In the case of `NC12CC3CC(CC(C3)C1)C2` [Amantadine HCl, reference compound], the “Selectivity index (SI)” value [2] is reported as 62.71, the IC50 [2, 16] is reported as 17.6 µg/mL and the CC50 [3] is reported as 1100 µg/mL. For the same compound, the CC50 [4] was 1103 µg/mL, the “Selectivity index (SI)” value [5] was 74.32 and the IC50 ([5]; 72 h) was 14.9 µg/mL.

For `COc1cc2c(cc1OC)[C@@]13CCN4CC5=CCO[C@H]6CC(=O)N2[C@H]1[C@H]6[C@H]5C[C@H]43` [Brucine], the “anti-influenza activity against avian influenza A/H5N1 virus (in words)” value [2] was “poor or no antiviral potential activity”, the IC50 [2, 16] was greater than 10000 µg/mL and the CC50 [3] was greater than 10000 µg/mL.

For `CNC(=O)Oc1ccc2c(c1)[C@]1(C)CCN(C)[C@@H]1N2C` [Eserine], the “anti-influenza activity against avian influenza A/H5N1 virus (in words)” value [2] was “poor or no antiviral potential activity”, the IC50 [2, 16] was greater than 10000 µg/mL and the CC50 [3] was greater than 10000 µg/mL. For the same compound, the “anti-influenza activity against human influenza A/H1N1 virus (in words)” value [5] was “no antiviral activity”.

For `COc1ccc2c3c([nH]c2c1)C(C)=NCC3` [Harmaline], the “Selectivity index (SI)” value [2] was 138, the IC50 [2, 16] was 3.42 µg/mL and the IC50 [2, 17] was 28100 nM. The inhibition at 1 µg/mL [6, 18] was 34%, the inhibition at 10 µg/mL [6, 18] was 46.2% and the inhibition at 100 µg/mL [6, 18] was 51.8%. For the same compound, the “main stage of antiviral action: viricidal (in words)” value [7] was “direct cell-free viricidal effect”, the inhibition at 1 µg/mL [7, 19] was 91% and the inhibition at 10 µg/mL [7, 19] was 96.7%. For the same compound, the inhibition at 100 µg/mL [7, 19] was 98.6%, the inhibition at 1 µg/mL [8] was 66.7% and the inhibition at 10 µg/mL [8] was 77.8%. It also gave an inhibition at 100 µg/mL [8] of 86.5%, a CC50 [3] of 475 µg/mL (≈ 2.22 mM) and an inhibition at 1 µg/mL [9, 20] of 28.3%. The inhibition at 10 µg/mL [9, 20] was 40.3%, the inhibition at 100 µg/mL [9, 20] was 48.7% and the “Selectivity index (SI)” value [5] was 8482. The IC50 ([5]; 72 h) was 0.056 µg/mL, the IC50 ([5]; read-out: PIC50 H1N1) was 20 nM and the inhibition at 1 µg/mL [10] was 72.6%. For the same compound, the inhibition at 10 µg/mL [10] was 87.7% and the inhibition at 100 µg/mL [10] was 94.2%.

For `CC1=NCCc2c1[nH]c1cc(O)ccc21` [Harmalol], the “Selectivity index (SI)” value [2] was > 5*10^5, the IC50 [2, 16] was 0.02 µg/mL and the IC50 [2, 17] was 21 nM. For the same compound, the inhibition at 0.1 µg/mL [6, 18] was 60.3%, the inhibition at 1 µg/mL [6, 18] was 74.5% and the inhibition at 10 µg/mL [6, 18] was 82.1%. For the same compound, the inhibition at 0.1 µg/mL [7, 19] was 41.5%, the inhibition at 1 µg/mL [7, 19] was 50.9% and the inhibition at 10 µg/mL [7, 19] was 58%. For the same compound, the inhibition at 0.1 µg/mL [8] was 74.3%, the inhibition at 1 µg/mL [8] was 79.6% and the inhibition at 10 µg/mL [8] was 91.8%. The CC50 [3] was greater than 10000 µg/mL, the “main stage of antiviral action: viral replication (in words)” value [9] was “interference with the viral replication compartment” and the inhibition at 0.1 µg/mL [9, 20] was 87.5%. The inhibition at 1 µg/mL [9, 20] was 96.9%, the inhibition at 10 µg/mL [9, 20] was 98.7% and the “Selectivity index (SI)” value [5] was > 2.8*10^5. The IC50 ([5]; 72 h) was 0.035 µg/mL, the IC50 ([5]; read-out: PIC50 H1N1) was 20 nM and the inhibition at 0.1 µg/mL [10] was 54.7%. For the same compound, the inhibition at 1 µg/mL [10] was 73.3% and the inhibition at 10 µg/mL [10] was 86.4%.

`Cc1nccc2c1[nH]c1ccccc12` [Harmane] showed an IC50 [2, 16] of 0.023 µg/mL, an IC50 [2, 17] of 23 nM and an inhibition at 10 µg/mL [6, 18] of 43.4%. The inhibition at 100 µg/mL [6, 18] was 48.7%, the inhibition at 1000 µg/mL [6, 18] was 61.4% and the EC50 [11] was 4.90 µg/mL (≈ 0.0269 mM). The inhibition at 10 µg/mL [7, 19] was 31.8%, the inhibition at 100 µg/mL [7, 19] was 41.8% and the inhibition at 1000 µg/mL [7, 19] was 82.1%. For the same compound, the inhibition at 10 µg/mL [8] was 55.1%, the inhibition at 100 µg/mL [8] was 74.4% and the inhibition at 1000 µg/mL [8] was 84.6%. For the same compound, the CC50 [3] was 7180 µg/mL (≈ 39.4 mM), the “main stage of antiviral action: viral replication (in words)” value [9] was “interference with the viral replication compartment” and the inhibition at 10 µg/mL [9, 20] was 83.3%. For the same compound, the inhibition at 100 µg/mL [9, 20] was 97.5%, the inhibition at 1000 µg/mL [9, 20] was 96.7% and the “Selectivity index (SI)” value [5] was > 2.17*10^5. The IC50 ([5]; 72 h) was 0.033 µg/mL, the IC50 ([5]; read-out: PIC50 H1N1) was 18.2 nM and the EC50 [12] was 71.8 µg/mL (≈ 0.394 mM). It also gave an inhibition at 10 µg/mL [10] of 65.5%, an inhibition at 100 µg/mL [10] of 74.4% and an inhibition at 1000 µg/mL [10] of 85%.

For `COc1ccc2c(c1)[nH]c1c(C)nccc12` [Harmine], the EC50 [13] is listed as 1470 nM, the “anti-influenza activity against avian influenza A/H5N1 virus (in words)” value [2] is listed as “poor or no antiviral potential activity; also recorded: no effect; also recorded: no anti-influenza activity” and the IC50 [2, 16] is listed as greater than 10000 µg/mL. It also gave a CC50 [3] greater than 10000 µg/mL.

In the case of `CC[C@@H](CO)NC(=O)[C@@H]1C=C2c3cccc4[nH]cc(c34)C[C@H]2N(C)C1` [Methyl ergometrine], the “anti-influenza activity against avian influenza A/H5N1 virus (in words)” value [2] is reported as “poor or no antiviral potential activity”, the IC50 [2, 16] is reported as greater than 1000 µg/mL and the CC50 [3] is reported as 8230 µg/mL (≈ 24.2 mM).

In the case of `c1ccc2c(c1)[nH]c1cnccc12` [Norharmane], the “anti-influenza activity against avian influenza A/H5N1 virus (in words)” value [2] is reported as “poor or no antiviral potential activity; also recorded: no effect”, the IC50 [2, 16] is reported as greater than 10000 µg/mL and the CC50 [3] is reported as greater than 10000 µg/mL.

For `COC(=O)[C@H]1[C@H]2C[C@@H]3c4[nH]c5cc(OC)ccc5c4CCN3C[C@H]2C[C@@H](OC(=O)c2cc(OC)c(OC)c(OC)c2)[C@@H]1OC` [Reserpine], the “Selectivity index (SI)” value [2] was greater than 33, the “anti-influenza activity against avian influenza A/H5N1 virus (in words)” value [2] was “moderate anti-influenza activity” and the IC50 [2, 16] was 42.4 µg/mL. The EC50 [14] was 3400 nM, the CC50 [3] was 1400 µg/mL (≈ 2.3 mM) and the “anti-influenza activity against human influenza A/H1N1 virus (in words)” value [5] was “moderate anti-influenza potential”.

In the case of `O=C1C[C@@H]2OCC=C3CN4CC[C@]56c7ccccc7N1[C@H]5[C@H]2[C@H]3C[C@H]46` [Strychnine Sulfate, Strychnine sulfate], the IC50 [2] is reported as 11.851 µg/mL, the “Selectivity index (SI)” value [2] is reported as greater than 843 and the IC50 [2, 16] is reported as 11.8 µg/mL. The “main stage of antiviral action: viral adsorption (in words)” value [6] was “hindering IAV adsorption to the host cell (MDCK) receptors”, the inhibition at 1 µg/mL [6, 18] was 90.1% and the inhibition at 10 µg/mL [6, 18] was 99.5%. It also gave an inhibition at 100 µg/mL [6, 18] of 99%, an inhibition at 1 µg/mL [7, 19] of 29.4% and an inhibition at 10 µg/mL [7, 19] of 37%. It also gave an inhibition at 100 µg/mL [7, 19] of 49.2%, an inhibition at 1 µg/mL [8] of 65.5% and an inhibition at 10 µg/mL [8] of 71.6%. The inhibition at 100 µg/mL [8] was 87.4%, the CC50 [3] was greater than 10000 µg/mL and the inhibition at 1 µg/mL [9, 20] was 19.4%. For the same compound, the inhibition at 10 µg/mL [9, 20] was 27.3%, the inhibition at 100 µg/mL [9, 20] was 42% and the “Selectivity index (SI)” value [5] was > 1.67*10^5. The IC50 ([5]; 72 h) was 0.06 µg/mL, the inhibition at 1 µg/mL [10] was 74.4% and the inhibition at 10 µg/mL [10] was 84%. The inhibition at 100 µg/mL [10] was 96.3%.

For `CC(=O)N[C@H]1[C@H]([C@H](O)[C@H](O)CO)OC(C(=O)O)=C[C@@H]1N=C(N)N` [Zanamivir, reference compound], the “Selectivity index (SI)” value [2] was > 1.26*10^5, the IC50 [2, 16] was 0.079 µg/mL and the CC50 [3] was greater than 10000 µg/mL. For the same compound, the “Selectivity index (SI)” value [5] was > 3.4*10^4 and the IC50 ([5]; 72 h) was 0.291 µg/mL.

For `O=C1C[C@@H]2OCC=C3CN4CC[C@]56c7ccccc7N1[C@H]5[C@H]2[C@H]3C[C@H]46` [strychnine], the “high dose causing muscle contraction and convulsions that can lead to respiratory paralysis” value [15] is given as 1.5 mg/kg.
